According to patent US7820679B2, “N-(-3-methoxy-5-methylpyrazin-2-yl)-2-(4-′1,3,4-oxadiazol-2-yl-phenyl)pyridine-3 sulphonamide as an anticancer agent” (AstraZeneca AB, priority 2002, dated 2010):
Where “and” joins values, the source holds several entries; their conditions need not be identical. Equal entries are not always repeated. Where no end group is shown, it is not given here.

How the values were obtained:
LOVO colon tumour = assay: Inhibition of angiogenesis in primary tumours, intradermal LOVO tumour in nude mice; assay type: in vivo; details: 5 days, vs vehicle
Text: (§1) A 1 cm^2 area with the tumour at the centre was examined and the number of blood vessels bifurcations within that area supplying the tumour were counted.

DU145 prostate tumour = assay: Inhibition of angiogenesis in primary tumours, intradermal DU145 tumour in nude mice; assay type: in vivo; details: 5 days, vs vehicle
Text: as §1

[1] = tested on: ET-1 induced MAPK phosphorylation in MC3T3.E1/J1 cells; assay: Inhibition of ET-1 induced MAPK phosphorylation in osteoblast cell line MC3T3.E1/J1 (western blot, densitometry); assay type: cell-based, mouse; details: Serum Free Media = 100.00
Experimental: The MC3T3. E1/J1 cell line was isolated from a parental cell line, MC3T3-E1 (available from Invitrogen), which had in turn been derived from newborn C57BL/6 mouse calvaria. The MC3T3 E1/J1 line is described as an osteoblastic line. To initiate the experiments described below, MC3T3.E1/J1 cells were plated at a density of 2.4×10^4 cells/well (24 well plates) in serum containing media and incubated for 48 hours. The cells were washed twice in PBS and re-incubated for approximately 17 hours in serum starvation media.
All media was then removed and the cells lysed and stored at −20° C. for electrophoresis/western blot, which localized phosphorylated MAPK and phosphorylated Akt probing with anti-phospho-p44/42 MAPK (Thr 202/204) and anti-Phospho AKT (Ser 473) antibodies (both commercially available from Cell Signalling Technology). The protein bands were quantitated by densitometry, and plotted as arbitrary densitometry units. Phosphorylated MAPK levels were normalised to total MAPK levels.

endothelin receptors = assay: Human forearm blood flow, vasoconstriction in response to infused ET-1; assay type: in vivo; details: healthy male subjects, single oral doses 10 mg and 30 mg, 2-4 hours post dosing; p=0.0210; evidence of a dose response
Text: Human forearm blood flow can be assessed by temporarily impeding the venous drainage from the arm by the application of a pneumatic cuff on the upper arm, which is then inflated to just above venous pressure. The resulting arterial flow into the arm with no corresponding venous drainage leads to engorgement and swelling of the forearm, which can be detected with sensitive strain gauges. Infusion of the arterial vasoconstrictor ET-1 into the brachial artery leads to a reduction in forearm distension due to decreased arterial inflow. This vasoconstriction is mediated via endothelin receptors on the vascular endothelium and associated smooth muscle.

[2] = biological target: T1, Human recombinant ETB receptor (Homo sapiens, UniProt P24530); assay: Endothelin human receptor binding assay (125I-ET-1 competition), ETB; details: at a concentration of 10^-4 M, n=3
T1 construct: expressed in transfected cells; host or cells: mouse erythroleukaemic (MEL) cells, membrane preparation
T1 sequence (P24530 27-442): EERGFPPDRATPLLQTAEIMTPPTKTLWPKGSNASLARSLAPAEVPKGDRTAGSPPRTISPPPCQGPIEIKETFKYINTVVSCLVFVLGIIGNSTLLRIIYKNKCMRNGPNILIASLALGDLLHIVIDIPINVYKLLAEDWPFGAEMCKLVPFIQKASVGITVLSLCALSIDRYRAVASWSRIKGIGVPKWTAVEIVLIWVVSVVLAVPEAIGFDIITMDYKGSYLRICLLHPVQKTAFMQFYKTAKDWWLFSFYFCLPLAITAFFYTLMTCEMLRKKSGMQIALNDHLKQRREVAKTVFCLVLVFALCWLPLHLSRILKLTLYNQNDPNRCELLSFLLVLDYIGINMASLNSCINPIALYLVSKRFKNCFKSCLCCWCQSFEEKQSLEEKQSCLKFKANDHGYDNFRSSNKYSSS
Text: 1) Endothelin Human Receptor Binding Assay

Compound: COc1nc(C)cnc1NS(=O)(=O)c1cccnc1-c1ccc(-c2nnco2)cc1 [Compound (I), N-(3-methoxy-5-methylpyrazin-2-yl)-2-(4-[1,3,4-oxadiazol-2-yl]phenyl)pyridine-3-sulphonamide]
- Inhibition of vessel count (LOVO colon tumour; 25 mg/kg once daily p.o.): 28% (P < 0.001)
- Inhibition of vessel count (LOVO colon tumour; 50 mg/kg once daily p.o., 50 mg/kg): 20% (P = 0.001) and 28% (P < 0.001)
- Inhibition of vessel count (DU145 prostate tumour; 25 mg/kg once daily p.o.): 38% (P < 0.001)
- Inhibition of vessel count (DU145 prostate tumour; 50 mg/kg once daily p.o.): 30% (P < 0.05)
- Phosphorylated MAPK, Average ([1]; ET-1 100 nm + Compound (I) 0.1 μm, normalised to total MAPK): 422.11 arbitrary densitometry units
- Phosphorylated MAPK, Average ([1]; ET-1 100 nm + Compound (I) 1 μm, normalised to total MAPK): 157.41 arbitrary densitometry units
- Phosphorylated MAPK, Average ([1]; ET-1 100 nm + Compound (I) 10 μm, normalised to total MAPK): 105.15 arbitrary densitometry units
- Phosphorylated MAPK, Average ([1]; ET-1 100 nm + Compound (I) 20 μm, normalised to total MAPK): 109.18 arbitrary densitometry units
- forearm blood flow in response to infused ET-1 compared to placebo (endothelin receptors): statistically significant reduction
- mean displacement at the ETB receptor [2]: 1.2±0.7%

Compound: ET-1: endogenous 21 amino acid peptide, endothelin isoform; used as stimulus and radioligand (CSCSSLMDKECVYFCHLDIIW; ends and bridges not checked; cysteine pairing not given here; UniProt P05305 53-73, looked up) [reference compound]
- Phosphorylated MAPK, Average ([1]; ET-1 100 nm alone, 3 minutes stimulation): 312.78 arbitrary densitometry units and 369.85 arbitrary densitometry units
